This is an account of results in EP0171342A1, “Substituted 2-(1-amino-akylidenyl)1,3-indane diones, process for their preparation and their therapeutical use” (priority 1984, dated 1986).

Data set [1] deals with rat Wistar soumis à une surcharge saline. Put plainly: Diuretic activity in selected Wistar rats given a saline overload (modified Wiebelhaus test). The format is in vivo. The protocol:
L'activité diurétique des produits selon l'invention a été également déterminée chez le rat Wistar soumis à une surcharge saline selon une modification du test décrit par Wiebelhaus et coll., Fed. Proc., 1960, 19, 364, en procédant à une sélection des animaux. A la dose de 20 mg/kg, les COR4003, COR4008, COR4009, COR4010, COR4011, COR4012, COR4014, COR4016, COR4021, COR4025 augmentent l'excrétion urinaire volumétrique mesurée au bout de 6 heures de respectivement 56, 54, 65, 95, 73, 54, 33, 40, 99 et 92 %. L'excrétion urinaire du sodium augmente de respectivement 56, 24, 42, 59, 43, 33, 29, 43, 31, 83, 26, 99, 40 % toujours à cette dose pour les COR4003, COR4008, COR4009, COR4010, COR4011, COR4012, COR4014, COR4016, COR4017, COR4021, COR4023, COR4025 et COR4026. Le rapport Na/K demeure la plupart du temps inchangé. Testé dans les mêmes conditions le furosémide, administré à la dose de 20 mg/kg entraine 63% d'augmentation de l'excrétion urinaire volumétrique et 53% d'augmentation de l'excrétion urinaire du sodium.

The test system of the next data set is souris. Put plainly: Acute toxicity (mortality, LD50) in mice. The format is in vivo. As to conditions: mouse.
Data set [2] in a line: Acute toxicity (mortality, LD50) in mice. The format is in vivo. As to conditions: in vivo, mouse, read-out: mortalité.
Data set [3] concerns rat soumis à une surcharge hydrique. Put plainly: Diuretic activity in rats given a water overload, oral. The conditions noted are these: read-out: facteur multipliant l'excrétion urinaire du sodium. The class given is in vivo. How it is done:
L'activité diurétique a été déterminée sur plusieurs modèles expérimentaux. Chez le rat soumis à une surcharge hydrique, administrés par voie orale à la dose de 20 mg/kg, le COR3760, le COR3789, le COR3792, le COR4002, le COR4003, le COR4009, le COR4010, le COR4012 et le COR4014 multiplient l'excrétion urinaire du sodium par respectivement un facteur 2,9 - 3,1 - 5,9 - 2,6 - 7,2 - 3,5 - 3,8 - 2,9 - 2,4. Administrés à la dose de 10 mg/kg, dans les mêmes conditions, les COR3760, COR3789, COR3792, COR4003 et COR4010 multiplient l'excrétion sodique par respectivement 2,3 - 2,9 - 2,8 - 2,4 et 2,5. La spironolactone multiplie quant à elle l'excrétion sodique d'un facteur 3,6 à la dose de 20 mg/kg. Administré à la dose de 5 mg/kg dans les mêmes conditions, le COR3792 multiplie l'excrétion sodique par 3,3. Administré par voie orale chez le rat ou la souris soumis à une surcharge saline, le COR3760 augmente l'excrétion urinaire volumétrique mesurée à la sixième heure de respectivement 49, 119 et 134% chez la souris et 28, 84 et 116% chez le rat après administration de 10, 20, et 40 mg/kg. Le COR3760 a été administré par voie orale au rat soumis à une surcharge hydrique et l'excrétion urinaire volumétrique, le sodium et le potassium excrétés ont été mesurés sur une période de 6 heures; ces paramètres ont varié de respectivement +17%, +102%, +165% à 10 mg/kg, +19%, +147%, +180% à 20 mg/kg et +36%, +415% et +239% à 40 mg/kg; le rapport Na/K passe de 0,56 chez les animaux témoins à 0,4 à 10 mg/kg, 0,49 à 20 mg/kg et 0, 8 à 40 mg/ kg. Au cours d'une seconde expérimentation, le COR3760 a entrainé des variations de +19%, +157%, +70% à 40 mg/kg, +19%, +319%, +90% à 60 mg/kg et +29%, +472% et +77% à 80 mg/kg; le rapport Na/K passe de 0,59 chez les animaux témoins à 0,88 à 40, 1,15 à 60 et 1,88 à 80 mg/kg.

In data set [4] the test system is oedème induit par l'injection intraplantaire de carragénine chez le rat. Put plainly: Anti-inflammatory activity: carrageenan paw oedema in rats. The conditions noted are these: oral 1 h before carrageenan, measured 3 h after, 150 mg/kg. The class given is in vivo. The protocol: L'activité antiinflammatoire a été déterminée chez le rat par la mesure de l'inhibition de l'oedème induit par l'injection intraplantaire de 0,1 ml d'une suspension à 1% de carragénine chez le rat. Les produits à tester sont administrés par voie orale lh avant l'injection de carragénine et la mesure est réalisée 3h après cette injection. Les COR3789, COR3792, COR4003, COR4008 et COR4010 administrés à 10b mg/kg entrainent respectivement 43, 42, 41, 38 et 39% d'inhibition. Administré à 200 mg/kg, le COR3773 entraine 53% d'inhibition. L'aspirine administrée dans les mêmes conditions à 150 mg/kg entraine 40% d'inhibition de l'oedème.

The subject of data set [5] is poumon de cobaye isolé perfusé. Put plainly: Bronchodilator activity: isolated perfused guinea pig lung contracted by methacholine. As to conditions: flow of Tyrode solution, lung contracted by 0,05 microg/ml methacholine; read-out: concentration qui augmente ce débit de 50%. From the text:
L'activité bronchodilatatrice a été déterminée in vitro par la mesure du débit d'une solution de Tyrode à travers un poumon de cobaye isolé perfusé, contracté par l'addition au fluide de perfusion de 0,05 microg/ml de méthacholine. Les COR3760, COR3789, COR3792, COR4003, COR4008, COR4010 et COR4014 utilisés respectivement aux concentrations de 50, 50, 100, 10, 50, 50 et 10 microg/ml augmentent ce débit de 50%. L'aminophylline entraine cette même activité à la concentration de 100 microg/ml.

Setting [6] is: read-out: augmentation de l'excrétion urinaire du sodium.
The mark [7] stands for this setting: rat, water overload, oral, 20 mg/kg.
The mark [8] stands for this setting: 6 h, read-out: augmentation de l'excrétion urinaire volumétrique mesurée au bout de 6 heures.

Each structure is given as a SMILES string. Values after ≈ are worked out from the molar mass of the structure shown. Where two headings read alike, the source gives them in different places.

Regarding `CC(N)=C1C(=O)c2ccccc2C1=O` [COR4026, (Amino-1 éthylidényl)-2 indanedione-1,3], the change in vivo at 20 mg/kg in data set [1] (setting [6]) amounted to 40%.
For `CC(NC(C)(C)C)=C1C(=O)c2ccccc2C1=O` [COR4001, (Tertiobutylamino-1 éthylidényl)-2 indanedione-1,3], the mortalité result with souris (intraperitoneal, 100 mg/kg) is listed as “aucune mortalité”; with souris (oral, 100 mg/kg) it was “aucune mortalité”. In addition, the mortality in data set [2] (ip, intraperitoneal, 200 mg/kg) was 100%; in data set [2] (oral, 300 mg/kg), 100%.
For `CNC(C)=C1C(=O)c2ccc([N+](=O)[O-])cc2C1=O` [COR4002, Nitro-5 (méthylamino-1 éthylidényl)-2 indanedione-1,3], the mortalité entry is reported as “aucune mortalité” with souris (intraperitoneal, 100 mg/kg) and “aucune mortalité” in the data set with souris (oral, 100 mg/kg). Besides, the mortality in data set [2] (ip, intraperitoneal, 200 mg/kg) came to 100%; in data set [2] (oral, 300 mg/kg), 100%. Moreover, in data set [3] (setting [7]), the response vs control in vivo at 20 mg/kg was found to be 260%.
As to `CNC(=C1C(=O)c2ccccc2C1=O)c1ccccc1` [COR4004, (Alpha-méthylamino benzylidényl)-2 indanedione-1,3], the mortalité result is “aucune mortalité” in the data set with souris (intraperitoneal, 200 mg/kg) and “aucune mortalité” in the data set with souris (oral, 300 mg/kg).
As to `CC(NC1CCCCC1)=C1C(=O)c2ccccc2C1=O` [COR4013, (Cyclohexylamino-1 éthylidényl)-2 indanedione-1,3], the mortalité entry with souris (intraperitoneal, 200 mg/kg) is recorded as “aucune mortalité”; in the data set on souris (oral, 300 mg/kg) it was “aucune mortalité”.
For the compound `CCNC(C)=C1C(=O)c2ccc(Cl)cc2C1=O` [COR3774, Chloro-5 (éthylamino-1 éthylidène)-2 indanedione-1,3], the mortalité entry in the data set on souris (intraperitoneal, 200 mg/kg) is given as “aucune mortalité”; with souris (oral, 300 mg/kg) it was “aucune mortalité”.
Consider `CCNC(CC)=C1C(=O)c2ccccc2C1=O` [COR4021, (Ethylamino-1 propylidényl)-2 indanedione-1,3], for which the change in vivo at 20 mg/kg was found to be 99% in data set [1] (setting [8]) and 83% in data set [1] (setting [6]).
On to `CCNC(C)=C1C(=O)c2cc(Cl)c(Cl)cc2C1=O` [COR4007, Dichloro-5,6 (éthylamino-1 éthylidényl)-2 indanedione-1,3], for which the mortalité entry with souris (intraperitoneal, 200 mg/kg) is “aucune mortalité”; in the data set on souris (oral, 300 mg/kg), “aucune mortalité”.
In the case of `CC(=O)Oc1ccccc1C(=O)O` [aspirine, reference compound], the “inhibition de l'oedème” value in data set [4] turned out to be 40%.
On to `CC(=C1C(=O)c2ccccc2C1=O)N(C)C` [COR3788, (Diméthylamino-1 éthylidène)-2 indanedione-1,3], for which the mortalité result in the data set with souris (intraperitoneal, 100 mg/kg) was “aucune mortalité”. Moreover, the mortality in data set [2] (ip, intraperitoneal, 200 mg/kg) stood at 100%; in data set [2] (oral, 300 mg/kg), 100%.
As for `CCC(NC(C)C)=C1C(=O)c2ccccc2C1=O` [COR4025, (Isopropylamino-1 propylidényl)-2 indanedione-1,3], the figures for the change in vivo at 20 mg/kg in data set [1] (setting [8]) and in data set [1] (setting [6]) were 92% and 99%, respectively.
In the same order, the values of `NS(=O)(=O)c1cc(C(=O)O)c(NCc2ccco2)cc1Cl` [furosémide, reference compound] are 63% and 53%.
In the case of `Cn1c(=O)c2[nH]cnc2n(C)c1=O` [aminophylline, reference compound], the EC50 in data set [5] came to 100 µg/mL (≈ 555 µM).
For `CCCC(NC)=C1C(=O)c2ccccc2C1=O` [COR4017, (Méthylamino-1 butylidényl)-2 indanedione-1,3], the change in vivo at 20 mg/kg in data set [1] (setting [6]) was determined as 31%.
Turning to `CC(=O)NS(=O)(=O)c1cc2c(cc1Cl)C(=O)C(=C(C)NC(C)C)C2=O` [COR4015, N-acétylsulfonamido-6 chloro-5 (isopropylamino-1 éthylidényl)-2 indanedione-1,3], the mortalité result was “aucune mortalité” in the data set with souris (intraperitoneal, 200 mg/kg) and “aucune mortalité” with souris (oral, 300 mg/kg).
`CC(NC1CCCC1)=C1C(=O)c2ccccc2C1=O` [COR4012, (Cyclopentylamino-1 éthylidényl)-2 indanedione-1,3]: the change in vivo at 20 mg/kg in data set [1] (setting [8]) was determined as 54%; in data set [1] (setting [6]) it was 33%. Besides, the mortalité result is “aucune mortalité” in the data set on souris (intraperitoneal, 200 mg/kg) and “aucune mortalité” with souris (oral, 300 mg/kg). In addition, the response vs control in vivo at 20 mg/kg in data set [3] (setting [7]) amounted to 290%.
With `CC(C)NC(=C1C(=O)c2ccccc2C1=O)C(C)C` [COR4023, (Isopropylamino-1 isobutylidényl)-2 indanedione-1,3], the change in vivo at 20 mg/kg in data set [1] (setting [6]) turned out to be 26%.
As for `CC(=O)S[C@@H]1CC2=CC(=O)CC[C@]2(C)[C@H]2CC[C@@]3(C)[C@@H](CC[C@@]34CCC(=O)O4)[C@H]12` [spironolactone, reference compound], the response vs control in vivo at 20 mg/kg in data set [3] (Rattus norvegicus, po) came out at 360%.
Take `CNC(C)=C1C(=O)c2cc(Cl)c(Cl)cc2C1=O` [COR4006, Dichloro-5,6 (méthylamino-1 éthylidényl)-2 indanedione-1,3]: the mortalité entry in the data set on souris (intraperitoneal, 200 mg/kg) is recorded as “aucune mortalité”; in the data set on souris (oral, 300 mg/kg), “aucune mortalité”.
As for `CC(NC(C)C)=C1C(=O)c2cc(Cl)c(Cl)cc2C1=O` [COR4016, Dichloro-5,6 (isopropylamino-1 éthylidényl)-2 indanedione-1,3], the change in vivo at 20 mg/kg in data set [1] (setting [8]) amounted to 40%; in data set [1] (setting [6]), 43%. Moreover, the mortalité result with souris (intraperitoneal, 200 mg/kg) was “aucune mortalité”; with souris (oral, 300 mg/kg), “aucune mortalité”.
